# Biological target: T1, PDGF-R (Mus musculus, UniProt P05622)
# T1 construct: endogenous in cells; host or cells: NIH 3T3 cells (lysate, immunoprecipitate)
# Test: Inhibition of PDGF-R cell-free autophosphorylation
# Type: biochemical
# Details: lysate from NIH 3T3 cells, stimulated with 10 ng/ml PDGF, [γ-^32 P]ATP, 4° C., immunoprecipitation
# Method: In order to test the present compounds for inhibition, the following procedure using PDGF stimulation is used. "IC50," as used below refers to the concentration of inhibitor ([…]) at which the rate of autophosphorylation is halved, compared with media containing no inhibitor.
# Inhibition of PDGF-R Autophosphorylation
# Lysate from NIH 3T3 cells was diluted one-third in Triton-free buffer and stimulated with 10 ng/ml PDGF for 30 minutes at 4° C. The equivalent of 1/15 of a 175. cm^2 plate of lysate was used per sample. The stimulated lysate was then immunoprecipitated with rabbit polyclonal anti-PDGF-receptor antibodies raised against a synthetic peptide from the COOH-terminal region (amino acids 1094-1106) or the human PDGF-receptor β-subunit and added to increasing concentrations of test compound of the present invention. After 10 minutes at 4° C., 10 μCi of [γ-^32 P]ATP were added and further incubated for 10 minutes at 4° C. Samples were separated by SDS-PAGE on 6% gels.
# The following tables show examples of representative compounds of this invention and their test results as determined by the above inhibition of PDGF-R cell-free autophosphorylation procedure.
# T1 sequence (P05622 32-1098): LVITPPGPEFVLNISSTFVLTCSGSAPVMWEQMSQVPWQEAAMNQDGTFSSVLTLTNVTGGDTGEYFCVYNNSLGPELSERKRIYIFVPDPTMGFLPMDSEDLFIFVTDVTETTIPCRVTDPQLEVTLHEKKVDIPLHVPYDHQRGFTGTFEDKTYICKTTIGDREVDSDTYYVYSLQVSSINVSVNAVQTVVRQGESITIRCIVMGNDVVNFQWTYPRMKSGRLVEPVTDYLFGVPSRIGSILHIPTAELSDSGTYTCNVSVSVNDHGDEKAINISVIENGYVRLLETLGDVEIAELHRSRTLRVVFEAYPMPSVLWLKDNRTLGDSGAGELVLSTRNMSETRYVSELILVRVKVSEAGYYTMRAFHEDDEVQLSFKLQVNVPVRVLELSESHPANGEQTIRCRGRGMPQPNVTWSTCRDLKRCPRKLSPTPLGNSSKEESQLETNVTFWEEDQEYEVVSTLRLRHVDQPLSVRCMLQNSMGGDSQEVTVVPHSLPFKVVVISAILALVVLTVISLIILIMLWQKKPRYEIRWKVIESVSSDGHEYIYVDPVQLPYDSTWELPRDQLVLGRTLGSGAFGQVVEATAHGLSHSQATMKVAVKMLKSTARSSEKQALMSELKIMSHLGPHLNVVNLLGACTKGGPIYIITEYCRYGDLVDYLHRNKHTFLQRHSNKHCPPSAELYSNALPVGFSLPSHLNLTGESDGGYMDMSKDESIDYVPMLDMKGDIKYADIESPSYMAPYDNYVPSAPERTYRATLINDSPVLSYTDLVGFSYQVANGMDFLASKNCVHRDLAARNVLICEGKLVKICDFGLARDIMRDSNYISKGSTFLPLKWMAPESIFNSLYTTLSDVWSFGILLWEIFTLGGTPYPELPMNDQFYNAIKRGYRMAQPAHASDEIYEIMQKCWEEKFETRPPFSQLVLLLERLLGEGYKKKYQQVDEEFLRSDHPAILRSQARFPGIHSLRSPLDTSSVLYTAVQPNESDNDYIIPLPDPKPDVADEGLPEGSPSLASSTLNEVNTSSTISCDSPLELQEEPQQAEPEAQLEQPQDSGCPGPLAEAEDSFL
row,Structure (SMILES),IC50
1,Cn1cc2cc3ncc(-c4ccc(Cl)s4)nc3cc2n1,300 nM
2,COc1ccc(-c2cnc3cc4cn(C)nc4cc3n2)cc1F,< 20 nM
3,COc1ccc(-c2cnc3cc4cnn(C)c4cc3n2)cc1F,< 2000 nM
4,COc1ccc(-c2cnc3cc4cn[nH]c4cc3n2)cc1F,< 20 nM
5,Clc1ccc(-c2cnc3cc4cn[nH]c4cc3n2)s1,2000 to 10000 nM
